According to the SangsterLogP compilation:

Assay: method code SF, from DOI: 10.1002/ps.2780140605
Compound C#CCC(O)(c1cccnc1)C1CCCCC1 (stereo not drawn) has a logP of 2.09.
Compound C#CCC(O)(c1cccnc1)c1ccc2ccccc2c1 (stereo not drawn) has a logP of 2.14.
For C#CCC(O)(c1cccnc1)c1ccc(Cl)c(Cl)c1 (stereo not drawn), the logP was 2.42.
Work on C#CCC(O)(c1cccnc1)c1ccc(Cl)cc1Cl (stereo not drawn) yielded a logP of 2.29.
For C#CCC(O)(c1ccc(F)cc1)c1cccnc1 (stereo not drawn), the logP was 1.78.
For C#CCC(O)(CC#C)c1cccnc1, the logP was 1.29.
Work on C#CCC(O)(c1ccc(C(C)C)cc1)c1cccnc1 (stereo not drawn) yielded a logP of 2.16.

Assay: not given
For C#CCC(O)c1cccnc1 (stereo not drawn), the logP was 1.21.
